Article PMC11320734 (ACS Pharmacology & Translational Science, 2024)
Values after ≈ are worked out from the molar mass of the structure shown. “Also recorded” adds a separate entry of the source. Read-outs that look alike come from different tables or passages of the source.

Experiments:
ABHD6 = ABHD6 (Homo sapiens, UniProt Q9BV23); assay: Endocannabinoid target profiling: ABHD6; type: biochemical
[1] = Thermodynamic solubility assay (THESA), also in FaSSIF and FeSSIF; type: physicochemical; conditions: thermodynamic from solid
Procedure: (§1) For the determination of the octanol/water distribution coefficient (logD), the carrier-mediated distribution system (CAMDIS)-assay was used as described elsewhere.[38] Kinetic and thermodynamic solubilities were assessed using the lyophilization solubility assay (LYSA) and thermodynamic solubility assay (THESA), respectively. For the LYSA, the solubility of RNB- 61 in phosphate buffer at pH 6.5 from an evaporated 10 mM DMSO compound stock solution was measured. Two aliquots of the test compounds were dried and dissolved in phosphate buffer at pH 6.5. The solutions were then filtered and diluted (3 different dilution levels for each compound) before high throughput mass spectrometry (MS) analysis was performed in an Agilent RapidFire system. Each test compound was quantified using a 6-point calibration curve prepared with the same DMSO starting solution. For THESA, RNB-61 (8.6 mg per mL solvent/vehicle) was stirred in HPLC vials (9 × 12 × 32 mm, Waters) at 350 rpm for 15 h. The presence of solid particles was determined by microscopic analysis of 10 μL samples. If the active pharmacological ingredient (API) was completely dissolved, more solid API was added before stirring for another 15 h. This step was repeated for up to 96 h or until residual solid particles could be detected. Samples (0.5 mL) were transferred to Eppendorf Ultrafree filter tubes (Filter: PVDF 0.22 μm) and centrifuged at 14,500 rpm for 10 min. The filtrates were diluted in ethanol and analyzed by ultra-performance liquid chromatography (UPLC). Measurements were repeated in 0.05 M aqueous phosphate buffer and in fasted (FaSSIF) and fed (FeSSIF) simulated gastrointestinal fluids.

mouse CB2R = biological target: T1, mouse CB2R (Mus musculus, UniProt P47936); assay: cAMP assay in CHO cells; type: cell-based; conditions: mean ± SD
T1 construct: expressed in transfected cells; host or cells: CHO cells

[2] = Octanol/water distribution coefficient (logD), CAMDIS assay; type: physicochemical
Procedure: as §1

Microsomal clearance = type: in vitro ADME; conditions: rat, rat microsomes
canine CB2R = canine CB2R (Canis lupus familiaris, UniProt E2RKA3); assay: cAMP assay in CHO cells; type: cell-based; conditions: mean ± SD; read-out: EC50 cAMP assay, dog CB2R
GSH adduct formation = type: in vitro ADME, human
Procedure: Cytochrome P450 (CYP) assays were conducted as previously described.[41] In brief, RNB-61 was incubated at a range of concentrations with the following components: pooled human liver microsomes, CYP probe substrate around the reported Km, and NADPH with a final concentration: 1 mM in 100 mM sodium phosphate buffer (pH 7.4). The conditions were optimized for a linear metabolic rate for the probe substrate reactions. The analysis of the samples was carried out by LC-MS/MS. The assays generated two endpoints: IC50 (μM) and percent inhibition at the highest acceptable test concentration (typically 50 μM; lower if the highest concentration data are rejected due to insolubility). […] (GSH) adduct formation data was assessed as reported in a previous study.[42] Briefly, RNB-61 was incubated with human liver microsomes to form reactive metabolites, and glutathione was added as a nucleophile to convert the reactive metabolites into stable conjugates that could be analyzed by MS.

[3] = Fraction unbound in plasma; type: in vitro ADME
Source text: Table 3 Physicochemical and ADMET Properties of RNB-61 | column: 481.556

Sequence of ABHD6 (Q9BV23 whole entry, species assumed): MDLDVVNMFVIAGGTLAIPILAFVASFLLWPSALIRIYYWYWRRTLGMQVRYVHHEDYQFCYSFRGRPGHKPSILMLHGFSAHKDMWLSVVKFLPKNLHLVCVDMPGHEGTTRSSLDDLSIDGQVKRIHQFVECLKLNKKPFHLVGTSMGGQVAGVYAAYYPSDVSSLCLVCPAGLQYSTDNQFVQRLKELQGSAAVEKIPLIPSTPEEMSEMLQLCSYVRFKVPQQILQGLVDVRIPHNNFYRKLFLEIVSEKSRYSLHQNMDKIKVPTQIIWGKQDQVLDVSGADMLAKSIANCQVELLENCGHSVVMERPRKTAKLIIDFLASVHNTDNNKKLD
Sequence of canine CB2R (E2RKA3 1-360): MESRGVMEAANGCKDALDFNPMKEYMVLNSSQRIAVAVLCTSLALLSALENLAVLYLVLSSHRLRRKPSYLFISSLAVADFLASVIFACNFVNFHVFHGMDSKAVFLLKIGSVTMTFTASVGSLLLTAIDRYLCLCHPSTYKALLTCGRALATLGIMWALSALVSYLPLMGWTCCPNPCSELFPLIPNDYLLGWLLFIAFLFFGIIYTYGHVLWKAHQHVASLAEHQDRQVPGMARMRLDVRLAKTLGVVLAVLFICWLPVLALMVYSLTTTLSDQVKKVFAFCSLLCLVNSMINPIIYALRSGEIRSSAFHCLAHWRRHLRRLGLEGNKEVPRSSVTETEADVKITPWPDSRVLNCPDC
T1 sequence (P47936 whole entry): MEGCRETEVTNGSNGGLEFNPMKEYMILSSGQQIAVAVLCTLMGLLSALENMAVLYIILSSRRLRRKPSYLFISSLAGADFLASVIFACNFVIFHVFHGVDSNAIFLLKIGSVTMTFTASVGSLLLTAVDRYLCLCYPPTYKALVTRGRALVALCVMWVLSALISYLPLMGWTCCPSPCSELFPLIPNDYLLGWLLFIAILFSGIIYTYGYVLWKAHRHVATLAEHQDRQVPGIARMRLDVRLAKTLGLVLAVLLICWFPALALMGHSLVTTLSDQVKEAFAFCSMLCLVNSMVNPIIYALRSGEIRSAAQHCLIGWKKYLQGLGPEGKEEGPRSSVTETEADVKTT

## Cn1c(C(C)(C)C)cc(=NC(=O)c2cc(C(F)(F)F)ccc2OCC(C)(C)O)n1CC1CCC1 [RNB-61]
ABHD6; Table S1, read-out: ABHD6 (Ki, IC50)
  IC50: > 10000 nM
ABHD6; screening concentration 10 μM
  inhibition of EC hydrolysis by ABHD6: did not inhibit
[1]; aqueous buffer, read-out: aqueous solubility THESA
  solubility at 15 h: 316 µg/mL (≈ 656 µM)
[1]; fassif, fasted simulated gastrointestinal fluid, read-out: solubility FaSSIF
  solubility at 15 h: 630 µg/mL (≈ 1310 µM)
[1]; fessif, fed simulated gastrointestinal fluid, read-out: solubility FeSSIF
  solubility at 15 h: 1370 µg/mL (≈ 2850 µM)
Mouse CB2R
  EC50: 0.25 ± 0.13 nM
[2]; Table 3, read-out: clogP (cell says logD)
  logD: 3.34
[2]; octanol/water, read-out: logD
  logD: 3.3
Microsomal clearance; Table 1
  microsomal CLint: < 10 µL/min/mg
Microsomal clearance; Table 3
  microsomal CLint: ≤ 10 µL/min/mg
Canine CB2R
  EC50: 1.86 ± 1.58 nM
GSH adduct formation
  GSH adducts (human liver microsomes): did not form any adducts; also recorded: no adducts detected
[3]; human
  fraction unbound: 0.019
[3]; mouse
  fraction unbound: 0.019
[3]; rat
  fraction unbound: 0.017
